Holding throughout (experiment): relative viability (nuclei count vs DMSO), 5 days (fraction); higher = more cells survive
Compound in assay [1]: C1CNCCC1C2=CC(=NN2)C3=CC=NC=C3 + C[C@@H](Oc1cc(-c2cnn(C3CCNCC3)c2)cnc1N)c1c(Cl)ccc(F)c1Cl [Crizotinib] (partner 1 µM)
In short, it runs like this: (§1)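 Cells from lung cancer lines were seeded into 1536-well plates and, one day later, dosed by pin tool. Treatments were either a single drug or a fixed dose of an anchor drug with five library-drug doses (not always all listed) in √10 steps. After 5 days, nuclei were stained in a one-step fixation (final 0.05% Triton X-100, 1% formaldehyde, 1 ug/ml Hoechst) and counted on 4× images, and relative viability is the treated-to-vehicle nuclei ratio, as the median of duplicate plates.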

Compound in the assay “Tanzisertib + Tozasertib”: O[C@H]1CC[C@H](Nc2ncc3nc(Nc4c(F)cc(F)cc4F)n([C@H]4CCOC4)c3n2)CC1 [Tanzisertib] + Cc1cc(Nc2cc(N3CCN(C)CC3)nc(Sc3ccc(NC(=O)C4CC4)cc3)n2)n[nH]1 [Tozasertib] (partner 0.1 µM)
In short, it runs like this:
as §1

Compound in the assay “Tanzisertib + Linsitinib”: O[C@H]1CC[C@H](Nc2ncc3nc(Nc4c(F)cc(F)cc4F)n([C@H]4CCOC4)c3n2)CC1 [Tanzisertib] + C[C@]1(O)C[C@@H](c2nc(-c3ccc4ccc(-c5ccccc5)nc4c3)c3c(N)nccn32)C1 [Linsitinib] (partner 1 µM)
In short, it runs like this: as §1

Compound in assay [2]: C[C@@H](N)c1ccc(C(=O)Nc2ccnc3[nH]ccc23)cc1 + CS(=O)(=O)CCNCc1ccc(-c2ccc3ncnc(Nc4ccc(OCc5cccc(F)c5)c(Cl)c4)c3c2)o1 [Lapatinib] (partner 2 µM)
In short, it runs like this:
as §1

Turning to RERF-LC-KJ, the relative viability was found to be 0.872 in assay [1] (first compound 0.08 µM); 0.894 in assay [1] (first compound 0.8 µM); 0.912 in assay [1] (first compound 2.53 µM); 0.759 in assay [1] (first compound 8 µM); 0.386 with Tanzisertib + Tozasertib (first compound 0.08 µM); 0.554 with Tanzisertib + Tozasertib (first compound 0.253 µM). In addition, the relative viability with Tanzisertib + Tozasertib (first compound 0.8 µM) is 0.61; with Tanzisertib + Tozasertib (first compound 2.53 µM), 0.383; in the assay with Tanzisertib + Tozasertib (first compound 8 µM), 0.442; with Tanzisertib + Linsitinib (first compound 0.08 µM), 0.942; with Tanzisertib + Linsitinib (first compound 0.253 µM), 0.834; with Tanzisertib + Linsitinib (first compound 0.8 µM), 0.971. Moreover, the relative viability with Tanzisertib + Linsitinib (first compound 2.53 µM) was 0.862; with Tanzisertib + Linsitinib (first compound 8 µM) it was 0.877; in assay [2] (first compound 0.04 µM), 0.906; in assay [2] (first compound 0.1265 µM) it was 0.837; in assay [2] (first compound 0.4 µM) it was 0.931; in assay [2] (first compound 1.265 µM) it was 0.902. Besides, in assay [2] (first compound 4 µM), the relative viability came out at 0.869.

With SK-LU-1, the relative viability was determined as 1.03 in assay [1] (first compound 0.08 µM); 0.936 in assay [1] (first compound 0.8 µM); 0.989 in assay [1] (first compound 2.53 µM); 0.947 in assay [1] (first compound 8 µM); 0.33 with Tanzisertib + Tozasertib (first compound 0.08 µM); 0.316 in the assay with Tanzisertib + Tozasertib (first compound 0.253 µM). Also, the relative viability in the assay with Tanzisertib + Tozasertib (first compound 0.8 µM) came to 0.263; with Tanzisertib + Tozasertib (first compound 2.53 µM), 0.309; with Tanzisertib + Tozasertib (first compound 8 µM), 0.319; with Tanzisertib + Linsitinib (first compound 0.08 µM) it was 1.16; with Tanzisertib + Linsitinib (first compound 0.253 µM), 1.15; in the assay with Tanzisertib + Linsitinib (first compound 0.8 µM), 1.14. Also, the relative viability with Tanzisertib + Linsitinib (first compound 2.53 µM) was found to be 1.17; with Tanzisertib + Linsitinib (first compound 8 µM) it was 1.23; in assay [2] (first compound 0.04 µM), 0.847; in assay [2] (first compound 0.1265 µM) it was 0.85; in assay [2] (first compound 0.4 µM), 0.906; in assay [2] (first compound 1.265 µM), 0.828. In assay [2] (first compound 4 µM), the relative viability was 0.779.

Turning to SK-MES-1, the relative viability in assay [1] (first compound 0.08 µM) is 1.03; in assay [1] (first compound 0.8 µM), 0.995; in assay [1] (first compound 2.53 µM), 0.992; in assay [1] (first compound 8 µM), 0.94; in the assay with Tanzisertib + Tozasertib (first compound 0.08 µM) it was 0.971; with Tanzisertib + Tozasertib (first compound 0.253 µM) it was 0.889. For the same cell line, the relative viability amounted to 0.991 with Tanzisertib + Tozasertib (first compound 0.8 µM); 0.951 with Tanzisertib + Tozasertib (first compound 2.53 µM); 0.992 in the assay with Tanzisertib + Tozasertib (first compound 8 µM); 1.08 with Tanzisertib + Linsitinib (first compound 0.08 µM); 1.06 with Tanzisertib + Linsitinib (first compound 0.253 µM); 1.06 with Tanzisertib + Linsitinib (first compound 0.8 µM). Also, the relative viability in the assay with Tanzisertib + Linsitinib (first compound 2.53 µM) turned out to be 1.12; with Tanzisertib + Linsitinib (first compound 8 µM), 0.832; in assay [2] (first compound 0.04 µM) it was 0.518; in assay [2] (first compound 0.1265 µM), 0.459; in assay [2] (first compound 0.4 µM) it was 0.428; in assay [2] (first compound 1.265 µM), 0.423. In addition, in assay [2] (first compound 4 µM), the relative viability turned out to be 0.444.

Turning to SW 1573, the relative viability in assay [1] (first compound 0.08 µM) amounted to 0.805; in assay [1] (first compound 0.8 µM) it was 0.713; in assay [1] (first compound 2.53 µM), 0.993; in assay [1] (first compound 8 µM) it was 0.795; with Tanzisertib + Tozasertib (first compound 0.08 µM), 0.174; in the assay with Tanzisertib + Tozasertib (first compound 0.253 µM), 0.185. Further, the relative viability worked out at 0.151 with Tanzisertib + Tozasertib (first compound 0.8 µM); 0.204 with Tanzisertib + Tozasertib (first compound 2.53 µM); 0.139 with Tanzisertib + Tozasertib (first compound 8 µM); 0.968 in the assay with Tanzisertib + Linsitinib (first compound 0.08 µM); 0.85 with Tanzisertib + Linsitinib (first compound 0.253 µM); 0.703 in the assay with Tanzisertib + Linsitinib (first compound 0.8 µM). Besides, the relative viability in the assay with Tanzisertib + Linsitinib (first compound 2.53 µM) was determined as 0.753; with Tanzisertib + Linsitinib (first compound 8 µM) it was 0.672; in assay [2] (first compound 0.04 µM), 1.3; in assay [2] (first compound 0.1265 µM), 1.14; in assay [2] (first compound 0.4 µM) it was 1.18; in assay [2] (first compound 1.265 µM) it was 1.04. The relative viability in assay [2] (first compound 4 µM) was found to be 1.08.
